In article PMC8555766, “Paradoxical Potentiation of Acid-Sensing Ion Channel 3 (ASIC3) by Amiloride via Multiple Mechanisms and Sites Within the Channel” (Frontiers in Physiology, 2021):
Residue numbers refer to the chain shown, from its start. pIC50: −log10 of the molar value.

What was measured:
[1] = target: T1, ASIC3 G445C (Rattus norvegicus, UniProt O35240, G445C); test: whole-cell patch clamp, block of pH 6-evoked currents; assay type: cell-based
T1 construct: rASIC3 G445C co-expressed with wildtype ASIC3 at a 10:1 ratio in CHO-K1 cells; with wildtype ASIC3 (heteromultimeric channels)
T1 sequence (O35240 1-533 G445C): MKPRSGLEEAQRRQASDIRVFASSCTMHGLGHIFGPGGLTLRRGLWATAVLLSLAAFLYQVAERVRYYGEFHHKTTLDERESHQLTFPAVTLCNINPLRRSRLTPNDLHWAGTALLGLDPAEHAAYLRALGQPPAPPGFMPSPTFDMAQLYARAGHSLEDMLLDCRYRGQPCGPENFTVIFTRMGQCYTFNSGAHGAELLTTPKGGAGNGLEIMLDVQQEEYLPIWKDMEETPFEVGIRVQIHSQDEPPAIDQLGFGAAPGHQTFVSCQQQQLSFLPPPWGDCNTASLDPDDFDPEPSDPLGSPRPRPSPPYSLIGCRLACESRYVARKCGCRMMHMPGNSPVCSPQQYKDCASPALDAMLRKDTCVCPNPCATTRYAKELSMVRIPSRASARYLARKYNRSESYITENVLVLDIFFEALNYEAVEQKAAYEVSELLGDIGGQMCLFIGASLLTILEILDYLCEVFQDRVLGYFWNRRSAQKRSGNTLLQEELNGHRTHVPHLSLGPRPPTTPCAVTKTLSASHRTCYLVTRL
Excerpt: whole-cell patch clamp, block of pH 6-evoked currents on ASIC3 G445C | G445C mutation partially blunted the inhibitory action of amiloride on ASIC3 currents when compared to wildtype ASIC3 channels

[2] = target: T2, Acid-Sensing Ion Channel 3 (ASIC3) (Rattus norvegicus, UniProt O35240); test: as above; assay type: cell-based
T2 construct: Rat ASIC3 in pMT3 vector, expressed in CHO-K1 cells
T2 sequence (O35240 1-533): T1 sequence (O35240 1-533 G445C) with C445G

`N=C(N)NC(=O)c1nc(Cl)c(N)nc1N` [amiloride] was tested. Which pIC50 [1] did it give?
The pIC50 was 4.76.

What about the pIC50 [2] of the same compound?
The pIC50 was 4.73.
